This is an account of results in US6861432B2, “Piperazine derivatives that destabilize androgen receptors” (Schering Aktiengesellschaft, priority 2001, dated 2005).

Where two headings read alike, the source gives them in different places.

One assay has as its system LNCaP cells. As to the kind of experiment: Model 2: Inhibition of the proliferation of LNCaP cells (crystal violet assay; antagonism with 0.1 nM R1881, agonism without). The note with it: for IC50: LNCaP proliferation in the presence of 0.1 nM R1881, 7-8 days, read-out: IC50 [10^−7 M]; for % Inhibition at 1 μM: LNCaP proliferation, 1 μM substance, compared to cell growth in the presence of 0.1 nM R1881. The assay is classed as cell-based, human.

A further assay concerns the target T1, androgen receptor (Homo sapiens, UniProt P10275, T878A).
T1 construct: 2*10^6 LNCaP cells in 6 ml of RPMI 1640 without phenol red are grown; endogenous in cells; host or cells: LNCaP (human prostate cell line)
T1 sequence (P10275 1-920 T878A): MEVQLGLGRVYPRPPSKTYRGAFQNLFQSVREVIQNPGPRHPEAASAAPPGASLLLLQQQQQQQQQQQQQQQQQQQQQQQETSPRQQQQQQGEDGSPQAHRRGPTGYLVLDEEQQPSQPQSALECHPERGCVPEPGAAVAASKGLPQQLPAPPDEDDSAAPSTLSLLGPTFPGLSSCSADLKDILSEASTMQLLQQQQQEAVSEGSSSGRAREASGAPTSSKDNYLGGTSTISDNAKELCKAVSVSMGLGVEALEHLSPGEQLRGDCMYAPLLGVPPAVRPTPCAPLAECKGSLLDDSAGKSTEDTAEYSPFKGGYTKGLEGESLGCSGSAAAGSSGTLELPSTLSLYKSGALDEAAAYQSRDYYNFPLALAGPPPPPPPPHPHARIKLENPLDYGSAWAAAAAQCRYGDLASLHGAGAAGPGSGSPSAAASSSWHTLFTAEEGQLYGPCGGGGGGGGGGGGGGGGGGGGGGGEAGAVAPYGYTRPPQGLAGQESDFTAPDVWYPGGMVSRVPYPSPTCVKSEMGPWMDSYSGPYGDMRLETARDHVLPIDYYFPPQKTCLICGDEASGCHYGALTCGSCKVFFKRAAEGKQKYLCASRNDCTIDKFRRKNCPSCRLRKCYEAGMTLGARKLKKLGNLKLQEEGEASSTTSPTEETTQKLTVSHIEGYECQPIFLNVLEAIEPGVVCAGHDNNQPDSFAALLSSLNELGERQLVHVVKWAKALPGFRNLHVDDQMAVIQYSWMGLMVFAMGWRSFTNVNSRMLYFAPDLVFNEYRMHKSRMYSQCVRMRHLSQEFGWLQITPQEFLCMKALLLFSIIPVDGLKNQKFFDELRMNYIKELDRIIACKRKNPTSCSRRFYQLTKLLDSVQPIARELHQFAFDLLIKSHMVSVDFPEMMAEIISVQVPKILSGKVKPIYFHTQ
As to the kind of experiment: cell-based. The note with it: 48 h; for remaining activity at 1 µM / remaining activity at 10 µM: LNCaP; for remaining activity at 1 µM: read-out: AR Content [%] At 1 μM; for AR Content [%] At 10 μM: LNCaP cells, 10 μM test substance, AR/actin as percentage of DMSO control; for remaining activity at 10 µM: read-out: AR Content [%] At 10 μM.

Another assay concerns seminal vesicles. As to the kind of experiment: Model 4: Antiandrogenic action on testosterone-stimulated growth of accessory sexual glands of castrated mice. The assay is classed as in vivo. The note with it: testosterone propionate 0.03 mg/mouse, test substance 2 × 30 mg/kg s.c., 7 days, CPA 30 mg/kg s.c., bicalutamide from preceding tests. The protocol: The function and the size of accessory sexual glands (prostate and seminal vesicles) depend on androgens. In castrated animals, a growth of these (organs is induced by androgen administration. The simultaneous treatment with antiandrogens inhibits this growth, depending on the dose.
To examine the test substances, the mice were castrated. The treatment with testosterone propionate (0.03 mg/mouse) and the test substances (formulated 2×daily 30 mg/kg s.c. in benzyl benzoate-castor oil (10:90)) was on the same day. The treatment was carried out over 7 days and at the end of the test, the weights of the seminal vesicles and prostates were determined. The inhibition, in percent, of the seminal vesicle growth was calculated relative to the control groups (with and without testosterone). As a reference substance, cyproterone acetate (30 mg/kg s.c.) was used.

A word on the IC50: it is the concentration at which inhibition is half-maximal. The % Inhibition is the drop in the measured response relative to a control, in per cent. Turning to `CC(C)(O)C(=O)N1CCN(CCCCCCN2C(=S)N(c3ccc(C#N)c(C(F)(F)F)c3)C(=O)C2(C)C)CC1` [Example 656], in the assay with LNCaP cells, the IC50 amounted to 26 nM and the “% Inhibition at 1 μM” value was found to be 99%. Turning to `CC1(C)C(=O)N(c2ccc(C#N)c(C(F)(F)F)c2)C(=S)N1CCCCCCN1CCN(C(=O)C(F)(F)F)CC1` [Example 670, 4-[4,4-Dimethyl-5-oxo-2-thioxo-3-[6-[4-(trifluoracetyl)piperazin-1-yl]hexyl]-imidazolidin-1-yl]-2-(trifluoromethyl)-benzonitrile], in the assay on LNCaP cells, the IC50 was found to be 24 nM and the “% Inhibition at 1 μM” value is listed as 96%.

With `CCS(=O)(=O)N1CCN(CCCCCN2C(=S)N(c3ccc(C#N)c(C(F)(F)F)c3)C(=O)C2(C)C)CC1` [Example 629, 4-[3-[5-[4-(Ethylsulfonyl)piperazin-1-yl]pentyl]-4,4-dimethyl-5-oxo-2-thioxoimidazolidin-1-yl]-2-(trifluoromethyl)benzonitrile], at androgen receptor, the remaining activity at 1 µM was 54%. For the same compound, the IC50 with LNCaP cells (Homo sapiens) is 140 nM. The “% Inhibition of the MSB Growth” value in the assay with seminal vesicles was found to be 98%. Turning to `CC(=O)O[C@]1(C(C)=O)CC[C@H]2[C@@H]3C=C(Cl)C4=CC(=O)[C@@H]5C[C@@H]5[C@]4(C)[C@H]3CC[C@@]21C` [CPA, 17-(acetyloxy)-6-chloro-1β,2β-dihydro-3′H-cyclopropa[1,2]pregna-1,4,6-triene-3,20-dione, reference compound], in the assay on seminal vesicles, the “% Inhibition of the MSB Growth” value turned out to be 85%. `CC(C)C(=O)N1CCN(CCCCN2C(=S)N(c3ccc(C#N)c(C(F)(F)F)c3)C(=O)C2(C)C)CC1` [Example 546, 4-[4,4-Dimethyl-3-[4-[4-(2-methyl-1-oxopropyl)piperazin-1-yl]butyl]-5-oxo-2-thioxoimidazolidin-1-yl]-2-(trifluoromethyl)benzonitrile]: on androgen receptor, the remaining activity at 1 µM worked out at 68%. Moreover, the “% Inhibition of the MSB Growth” value in the assay with seminal vesicles is on record as 98%. In the case of `CC1=C(CCCCCCN2CCN(S(=O)(=O)c3ccccc3)CC2)C(=O)N(c2ccc(C#N)c(C(F)(F)F)c2)C1=O` [Example 295, 4-[2,5-Dihydro-3-methyl-2,5-dioxo-4-[6-[4-(phenylsulfonyl)piperazin-1-yl]hexyl]-1H-pyrrol-1-yl]-2-(trifluoromethyl)benzonitrite], the “AR Content [%] At 10 μM” value on androgen receptor came to 48%. With `CC1=C(CCCCCCN2CCN(S(=O)(=O)c3ccc(C#N)cc3)CC2)C(=O)N(c2ccc(C#N)c(C(F)(F)F)c2)C1=O` [Example 300, 4-[3-[6-[4-[(4-Cyanophenyl)sulfonyl]piperazin-1-yl]hexyl]-2,5-dihydro-4-methyl-2,5-dioxo-1H-pyrrol-1-yl]-2-(trifluoromethyl)benzonitrile], the remaining activity at 10 µM on androgen receptor turned out to be 35%.

Turning to `COc1ccc(C(=O)N2CCN(CCCCCC3=C(C)C(=O)N(c4ccc(C#N)c(C(F)(F)F)c4)C3=O)CC2)cc1OC` [Example 158, 4-[3-[5-[4-(3,4-Dimethoxybenzoyl)piperazin-1-yl]pentyl]-2,5-dihydro-4-methyl-2,5-dioxo-1H-pyrrol-1-yl]-2-(trifluoromethyl)benzonitrile], at androgen receptor, the remaining activity at 10 µM turned out to be 22%. As to `CSC(=O)N1CCN(CCCCCCN2C(=S)N(c3ccc(C#N)c(C(F)(F)F)c3)C(=O)C2(C)C)CC1` [Example 696, S-Methyl 4-[6-[3-[4-cyano-3-(trifluoromethyl)phenyl]-5,5-dimethyl-4-oxo-2-thioxoimidazolidin-1-yl]hexyl]piperazine-1-carbothioate], at androgen receptor, the remaining activity at 1 µM is 60%. Moreover, the “% Inhibition of the MSB Growth” value with seminal vesicles came out at 87%. `CC1=C(CCCCCCN2CCN(C(=O)Nc3c(Cl)cccc3Cl)CC2)C(=O)N(c2ccc(C#N)c(C(F)(F)F)c2)C1=O` [Example 351]: on androgen receptor, the “AR Content [%] At 10 μM” value came out at 61%. For `CSc1ccc(NC(=O)N2CCN(CCCCCCC3=C(C)C(=O)N(c4ccc(C#N)c(C(F)(F)F)c4)C3=O)CC2)cc1` [Example 342, 4-[6-[1-[4-Cyano-3-(trifluoromethyl)phenyl]-2,5-dihydro-4-methyl-2,5-dioxo-1H-pyrrol-3-yl]hexyl]-N-[4-(methylsulfanyl)phenyl]piperazine-1-carboxamide], the remaining activity at 10 µM at androgen receptor stood at 67%.
